In patent US6384249B1, “Compounds and methods for stabilization of furfural compositions” (Hercules, Inc., priority 2000, dated 2002):
Values joined by “and” are separate entries in the source; they are usually repeats but may differ in a detail not shown here. Equal values may be shown once.

Test: Accelerated air oxidation of furfural, Total Acid Number (TAN) by potentiometric titration
Settings: 25 psig air, 300° F., 2 hours
Method: In this example, distilled furfural was treated with prospective stabilizers, over-pressured with 25 psig of air, heated to 300° F., and held at temperature for 2 hours to allow for an accelerated rate of furfural oxidation. Total Acid Number (TAN) titrations were then conducted by potentiometric titration on the treated furfural samples, an untreated (blank), and a sample of the original distilled material (control), which was not heated to 300° F. The acid number, expressed as mg KOH/g, is a measure of the acid generated during air oxidation of furfural. Performance of inhibitors was expressed as a percent inhibition by the following equation: […]

Compound	% Inhibition @ ppmA (250 ppmA stabilizer) [%]	% Inhibition @ ppmA (500 ppmA stabilizer)	% Inhibition @ ppmA (1000 ppmA stabilizer)	% Inhibition @ ppmA (2000 ppmA stabilizer) [%]
CCC(C)Nc1ccc(NC(C)CC)cc1 (stereo not shown) [Compound #1]	69	106% and 114%	88% and 170%	57
CC(C)CC(C)N=C1C=CC(=Nc2ccccc2)C=C1 (stereo not shown) [Compound #4]	48	76%	95%	–
Cc1cc(C(C)(C)C)c(O)c(C(C)(C)C)c1 [Compound #3, 2,6-di-tert-butyl-4-methylphenol]	−10	−5%	12%	–
CCC(C)CC(C)Nc1ccc(Nc2ccccc2)cc1 (stereo not shown) [Compound #2]	15	37%	56%	–
